Experimental data taken from US4351948A, “Imidazole hydrazone derivatives” (priority 1980, dated 1982).
Read-outs that look alike come from different tables or passages of the source.

Assays:
[1] = tested on: Desulfovibrio desulfuricans API-BREWER; experiment: Minimal inhibitory concentration against anaerobic bacteria; settings: 24 h
[2] = tested on: candida albicans; experiment: Oral treatment: recovery of viable candida albicans from the kidneys of infected mice; assay type: in vivo
Text: Effect of oral treatment with HC274, HC316, HC390, HC415 and Ketoconazole on the recovery of viable candida albicans from the kidneys of infected mice.

[3] = tested on: B. uniformis ATCC 8492; experiment: Antianaerobic activity, MIC by standard broth dilution method (Table II); assay type: cell-based; settings: Bacteroides uniformis, ATCC8492, 24 h, read-out: Minimal Inhibitory Concentration (MIC)
Outline: (§1)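 MIC determined by standard broth dilution against single strains of the anaerobes and T. vaginalis.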

[4] = tested on: T. vaginalis ATCC 30001; experiment: as above; assay type: cell-based; settings: Trichomonas vaginalis, ATCC30001, 24 h, read-out: Minimal Inhibitory Concentration (MIC)
Outline: as §1

[5] = tested on: B. fragilis ATCC 23745; experiment: as above; assay type: cell-based; settings: Bacteroides fragilis, ATCC23745, 24 h, read-out: Minimal Inhibitory Concentration (MIC)
Outline: as §1

[6] = tested on: Bacteroides uniformis ATCC 8492; experiment: Minimal inhibitory concentration against anaerobic bacteria; settings: ATCC8492, 24 h
[7] = in vivo; settings: male mice, 7 day
[8] = tested on: Desulfovibrio desulfuricans API-SW2; experiment: Minimal inhibitory concentration against anaerobic bacteria; settings: for Minimal Inhibitory Concentration: 24 hours at 37° C.
[9] = tested on: C. albicans; experiment: Vaginal candida infection in rats, oral or topical treatment; assay type: in vivo
Text: Effect of oral or topical administration of HC274 and ketoconazole on vaginal candida infection in rats. Clearance of C. albicans from rat vagina following oral or topical treatment (as percentage of control).
Topical treatment: 1% solution in polyethylene glycol administrated twice daily for 3 days.
Oral treatment: Once daily for 3 days.

[10] = tested on: candida; experiment: Intravenous administration: recovery of viable candida cells from the kidneys of infected mice; assay type: in vivo; settings: 25 mg/ml
[11] = read-out: Minimal Inhibitory Concentration, Test 1, 24 hours at 37° C.
[12] = read-out: Minimal Inhibitory Concentration, Test 2, 24 hours at 37° C.
[13] = read-out: Minimal Inhibitory Concentration, Test 3, 24 hours at 37° C.

Cl.Clc1ccc(/C(Cn2ccnc2)=N\Nc2ccc(Cl)cc2Cl)cc1 [HC274, (E)-1-(4-chlorophenyl)-2-(1H-imidazol-1-yl)ethanone, 2,4-dichlorophenylhydrazone, hydrochloride]
MIC [1, 11]: 0.75 µg/mL | MIC [1, 12]: 1 µg/mL | MIC [1, 13]: 0.5 µg/mL | Recovery of C.albicans (as percentage of control) ([2]; 5 mg/kg): 84.2 percentage of control | Recovery of C.albicans (as percentage of control) ([2]; 20 mg/kg): 47.8 percentage of control | MIC ([3]; Test 1): 2.5 µg/mL | MIC ([3]; Test 2): 2.5 µg/mL | MIC ([3]; Test 3): 5 µg/mL | MIC ([4]; Test 1): 5 µg/mL | MIC ([4]; Test 2): 7.5 µg/mL | MIC ([4]; Test 3): > 10 µg/mL | MIC ([5]; Test 1): 2.5 µg/mL | MIC ([5]; Test 2): 5 µg/mL | MIC ([5]; Test 3): 7.5 µg/mL | MIC [6, 11]: 2.5 µg/mL | MIC [6, 12]: 2.5 µg/mL | MIC [6, 13]: 5 µg/mL | LD50 at 168 h ([7]; mouse, in vivo, iv, read-out: LD50): 85 mg/kg | LD12.5 ([7]; p.o.): 440 mg/kg | MIC ([8]; Desulfovibrio desulfuricans, APISW2, 24 h, read-out: Minimal Inhibitory Concentration): 1 µg/mL | Minimal Inhibitory Concentration ([8]; Test 2): 1.0 mg/L | Minimal Inhibitory Concentration ([8]; Test 3): 1.0 mg/L | Clearance of C. albicans from rat vagina (as percentage of control) ([9]; oral, 10 mg/kg once daily for 3 days): 94.3 percentage of control | Clearance of C. albicans from rat vagina (as percentage of control) ([9]; oral, 20 mg/kg once daily for 3 days): 91.3 percentage of control | Clearance of C. albicans from rat vagina (as percentage of control) ([9]; topical, 1% solution in polyethylene glycol twice daily for 3 days): 95.5 percentage of control | CFU/g kidney [10]: 7.7 × 10^3 CFU/g kidney | CFU/g kidney, % of control [10]: 52 % of control
